Usually melting point stands for the temperature, or range, at which the solid turns liquid.

Melting point data for 13 compounds are collected here from US8716289B2, “Carbamate derivatives of alkyl-heterocycles, preparation thereof and therapeutic use thereof” (Sanofi, priority 2008, dated 2014).

Compound `CN(C)C(=O)c1cc(COC(=O)NCCC2CCN(c3ccc4cc(Cl)ccc4n3)CC2)on1` [Compound 31, 3-dimethylcarbamoylisoxazol-5-ylmethyl 2-[1-(6-chloroquinolin-2-yl)piperidin-4-yl]ethylcarbamate] returned a melting point of 114 to 116 °C. The compound `NC(=O)c1cc(COC(=O)NCCC2CCN(c3cccc(-c4ccc(F)cc4)n3)CC2)on1` [Compound 24, 3-carbamoylisoxazol-5-ylmethyl 2-[6′-(4-fluorophenyl)-3,4,5,6-tetrahydro-2H-[1,2′]bipyridinyl-4-yl]ethylcarbamate] gave a melting point of 172 to 174 °C.

Compound `CC(C)c1nc(COC(=O)NCC2CCN(c3nccc(C(F)(F)F)n3)CC2)no1` [Compound 55, 5-isopropyl[1,2,4]oxadiazol-3-ylmethyl [1-(4-trifluoromethylpyrimidin-2-yl)piperidin-4-yl]methylcarbamate] displayed a melting point of 104 to 106 °C. As for `CNC(=O)c1cc(COC(=O)NCCC2CN(c3nccc(C(F)(F)F)n3)C2)on1` [Compound 83, 3-methylcarbamoylisoxazol-5-ylmethyl {2-[1-(4-trifluoromethylpyrimidin-2-yl)azetidin-3-yl]ethyl}carbamate], the figure is 155 to 157 °C; as for `O=C(NCCC1CCN(c2ccc3cc(Cl)ccc3n2)CC1)OCc1cc(-c2ccc(Cl)cc2)no1` [Compound 3, 3-(4-chlorophenyl)isoxazol-5-ylmethyl 2-[1-(6-chloroquinolin-2-yl)piperidin-4-yl]ethylcarbamate], 139 to 140 °C; as for `CNC(=O)c1cc(COC(=O)NCC2CCN(c3nnc(Cl)c4ccccc34)C2)on1` (racemic) [Compound 79, 3-methylcarbamoylisoxazol-5-ylmethyl (±)[1-(4-chlorophthalazin-1-yl)pyrrolidin-3-ylmethyl]carbamate], 159 to 161 °C. Take `CN(C)C(=O)c1cc(COC(=O)NCCC2CCN(c3cccc(-c4ccc(F)cc4)n3)CC2)on1` [Compound 27, 3-dimethylcarbamoylisoxazol-5-ylmethyl 2-[6′-(4-fluorophenyl)-3,4,5,6-tetrahydro-2H-[1,2′]bipyridinyl-4-yl]-ethylcarbamate]: the melting point is 81 to 83 °C. In turn, `O=C(NCCC1CCN(c2ccc3cc(Cl)ccc3n2)CC1)OCc1nc(-c2ccc(Cl)cc2)no1` [Compound 4, 3-(4-chlorophenyl)[1,2,4]oxadiazol-5-ylmethyl 2-[1-(6-chloroquinolin-2-yl)piperidin-4-yl]ethylcarbamate] displayed a melting point of 134 to 136 °C.

As for `Cc1onc(-c2ccccc2)c1COC(=O)NCCC1CCN(c2ccc3cc(Cl)ccc3n2)CC1` [Compound 6, 5-methyl-3-phenylisoxazol-4-ylmethyl 2-[1-(6-chloroquinolin-2-yl)piperidin-4-yl]ethylcarbamate], the melting point is 110 to 112 °C.

`COc1ccc(-c2nnc(COC(=O)NCCC3CCN(c4ccc5cc(Cl)ccc5n4)CC3)o2)cc1` [Compound 14, 5-(4-methoxyphenyl)[1,3,4]oxadiazol-2-ylmethyl 2-[1-(6-chloroquinolin-2-yl)piperidin-4-yl]ethylcarbamate] came in with a melting point of 154 to 156 °C. As for `CC(C)c1nc(COC(=O)NCC2CCN(c3nccc4ccccc34)CC2)no1` [Compound 67, 5-isopropyl[1,2,4]oxadiazol-3-ylmethyl (1-isoquinolin-1-ylpiperidin-4-ylmethyl)carbamate], the figure is 95 to 97 °C; as for `O=C(NCCC1CCN(c2ccc3cc(Cl)ccc3n2)CC1)OCc1nnc(-c2ccc(Cl)cc2)o1` [Compound 13, 5-(4-chlorophenyl)[1,3,4]oxadiazol-2-ylmethyl 2-[1-(6-chloroquinolin-2-yl)piperidin-4-yl]ethylcarbamate], 152 to 153 °C; as for `NC(=O)c1cc(COC(=O)NCCC2CCN(c3cnc(-c4ccc(F)cc4)cn3)CC2)on1` [Compound 68, 3-carbamoylisoxazol-5-ylmethyl (2-{1-[5-(4-fluorophenyl)-pyrazin-2-yl]piperidin-4-yl}ethyl)carbamate], 187 to 189 °C.
